{"source": "patent US20100222289A1", "about": "“METHODS FOR DIAGNOSIS AND TREATMENT OF CHRONIC FATIGUE SYNDROME” (CFS Research LLC, priority 2007, published 2010)", "key": {"[1]": {"conditions": "high dose repetitive human studies; cited from earlier work"}, "HCMV [2]": {"system": "HCMV", "conditions": "versus HCMV; read-out: 50% inhibitory concentration; cited from earlier work"}, "[3]": {"system": "Group A herpesvirus CFS (EBV, HCMV, HHV6)", "assay": "Example 4: Energy Index Point Score (EIPS) in Group A herpesvirus CFS patients on antiviral nucleosides", "type": "in vivo, human", "text": "Background and Patient Population The international criteria for diagnosis of CFS was used. With strict confidentiality clinical files of CFS patients were identified by number only. A blinded code was maintained. Data were entered to the Axel computer system and analyzed anonymously. Patients with active EBV infection were identified by the presence of elevated serum ELISA antibodies to Epstein-Barr virus (EBV) IgM viral capsid antigen p18 peptide (Diasorin Inc., Stillwater, Minn.) and/or EBV, Early antigen (diffuse) 47 KD recombinant peptide (Diasorin, Stillwater, Minn.). Patients with active HCMV infection were identified by the presence of HCMV strain AD69 human fibroblast lysate, IgM and IgG ELISA and Copalis light-scatter, HCMV IgM p52 recombinant protein, UL44 and HCMV CM2, UL44 and part UL57 recombinant protein. Elevated IgM and IgG Human Herpesvirus 6 serum antibody titers ≧160 (LabCorp, Dublin, Ohio) were recorded. CFS patients had 24-Hr ECG Holter monitor recordings. When abnormal resting standard ECG and abnormal recurrent oscillating T-waves (flat, inverted) were present at baseline, radionuclide ventriculography by bicycle protocol stress studies were performed. The CFS patients reported here are termed Group A. They had negative IgM, IgG serum antibody titers to Borrelia burgdorferi, Western blot and ELISA; anti-streptolysin 0 titers <200 units; and negative serum IgM and IgG antibody titers to both Ehrlichia chaffeensis and Babesia microti (LabCorp).\nMeasurement of Degree of Fatigue (Physical Capacity) The Energy Index Point Score (EIPS) is a reliable validated metric assessing the degree of illness of CFS patients. With an EIPS scoring scale for reference on the wall in each examining room, the EIPS was determined by consensus of physician and patient. An EIPS of “0” is a bedridden patient. Patients were seen every 4-6 weeks and EIPS recorded. If an intercurrent illness was present EIPS determinations were delayed for 2 weeks. An EIPS of between 0 and 5 is associated with the presence of CFS. At an EIPS of between 6 and 10, the patient no longer meets criteria for diagnosis of CFS. A change in EIPS of 0.25 is small, a 0.5 change in EIPS is a medium change, and an EIPS change of ≧0.8 is a large effect size (p<0.05).\nValacyclovir and Famciclovir Administration to CFS patients with EBV infection Valacyclovir and famciclovir are pro-drugs well absorbed orally and, after reaching the circulation as acyclovir or penciclovir, respectively, inhibit EBV thymidine kinase efficiently. […]. Here, valacyclovir was the agent of first choice, but when diarrheas to valacyclovir developed, famciclovir was substituted. […]. If the patient weighed over 79.5 Kg, 1500 mg valacyclovir was given at each dose. Valacyclovir is excreted by the kidney by both glomerular filtration and tubular secretion. Valacyclovir renal calculi may result, and patients were advised to drink at least 1500 ml water daily. […]. Valacyclovir, once absorbed orally, is acyclovir in serum.\nCFS patients were given valganciclovir. Cautiously beginning, 450 mg daily was administered every morning after a meal for three days, and then increasing dosage to two doses of 450 mg, every morning for three days. They were then given two doses of 450 mg valganciclovir every morning followed by one 12 hours later as a continuing dosage. […] If the patient weighed over 90.0 Kg, 900 mg valganciclovir every 12 hours was given. Dosage was evaluated every 2-6 weeks for ongoing tolerance with normal values of hemograms, platelets and amino transferases and creatinines."}, "[4]": {"parameters": "species or system human", "conditions": "in vivo", "protocol": "Toxicity of Antiviral Nucleosides Patients were seen every 4 to 6 weeks, EIPS was recorded and complete blood count, aminotransferases, creatinine and urinalyses were done. Also recorded were abnormalities in white blood cells and platelet counts, aminotransferases, weight gain or loss, whether famciclovir was substituted for valacyclovir, dosage change for valganciclovir, valacyclovir, or famciclovir, and whether any of the following occurred: participation in blinded-placebo-controlled study, hospitalization, surgery, recovery, a cessation of medicines by patient choice, cessation of medicines by physician choice, relapse with worsening EIPS and returned for care."}, "HCMV [5]": {"system": "HCMV", "conditions": "cited from earlier work"}, "HHV6 [6]": {"system": "HHV6", "conditions": "cited from earlier work"}, "HCMV [7]": {"system": "HCMV", "conditions": "cited from earlier work", "remark": "listed apart in the source"}, "HHV6 [8]": {"system": "HHV6", "conditions": "cited from earlier work", "remark": "listed apart in the source"}, "[9]": {"conditions": "cited from earlier work"}, "EBV [10]": {"system": "EBV", "assay": "simultaneous tests, activity versus EBV compared to HCMV", "type": "cell-based, Epstein-Barr virus", "text": "Therefore, valganciclovir was employed in CFS associated with HCMV or HHV6. Valganciclovir is efficiently absorbed as ganciclovir. It […] to human bone marrow progenitor cells and lymphocyte blastogenesis at this dosage. […] Food increases the bioavailability of both valacyclovir and valganciclovir."}, "HCMV-EBV subset CFS": {"system": "HCMV-EBV subset CFS", "assay": "Example 1: subset directed antiviral therapy of HCMV-EBV CFS patients", "type": "in vivo, human", "conditions": "for clinical outcome: 10 CFS patients, treated according to subset for mean 2.6±0.4 years; for side effects: mean 2.6±0.4 years treatment", "protocol": "Ten patients with chronic fatigue syndrome (CFS) of 1.3-2.6 years duration had elevated serum antibody titers to cytomegalovirus (HCMV), and 9 of these patients also had elevated serum antibody titers to Epstein-Barr virus (EBV). They were classified: HCMV-EBV subset (nine patients) and HCMV subset (one patient) CFS. We determined whether subset classification is required for successful antiviral therapy of CFS.\nCFS patients with elevated serum antibody titers to HCMV and EBV were treated with valganciclovir (HCMV) and valacyclovir (EBV) according to subset classification for a mean of 2.6±0.4 years. […] Five patients continue no antiviral drug, and five patients require continuing antiviral suppressive therapy. […] Subset directed antiviral therapy leads to sustained recovery in CFS patients."}, "[11]": {"system": "human bone marrow progenitor cells and lymphocyte blastogenesis", "conditions": "at this dosage; cited from earlier work"}, "EBV CFS subset": {"system": "EBV CFS subset", "assay": "Example 3: valacyclovir in EBV subset CFS, placebo-controlled trial and 36 month follow-up", "type": "in vivo, human", "protocol": "We used subset classification of Epstein-Barr virus (EBV) in chronic fatigue (CFS). We (1) performed (Group 1) a blinded-random placebo-controlled trial of valacyclovir in EBV CFS subset, and (2) followed (Group 2) this EBV subset for thirty-six months. Patients were given valacyclovir 14.3 mg per kg every 6 hours. The validated Energy Index point score (EI) assessing physical functional capacity, Holter monitor, multigated (radionuclide) MUGA rest/stress ventriculographic examination, EBV serum IgM viral capsid antibodies (VCA), and EBV Early Antigen diffuse, (EA) were evaluated."}, "EBV [12]": {"system": "EBV", "conditions": "cited from earlier work"}, "[13]": {"conditions": "EBV single-virus subset (31 pts)"}, "[14]": {"conditions": "Group 2, thirty-six month follow-up"}, "[15]": {"conditions": "1 gm doses every 6 hours, 70 kg patients"}}, "data": [{"smiles": "CC(C)Nc1nc2cc(Cl)c(Cl)cc2n1[C@H]1O[C@@H](CO)[C@H](O)[C@@H]1O", "note": "[maribavir, 1H-β-L-ribofuranoside-2-isopropylamino-5,6-dichlorobenzimidazole]", "values": [{"measurement": "side effects", "setting": "[1]", "value": "changes in taste and headache"}, {"measurement": "IC50", "setting": "HCMV [2]", "value": "120 ± 10", "unit": "nM"}]}, {"smiles": "CC(=O)OCC(CCn1cnc2cnc(N)nc21)COC(C)=O", "note": "[famciclovir]", "values": [{"measurement": "EIPS Change", "setting": "[3]; [13]", "value": "+2"}, {"measurement": "toxicity", "setting": "[4]", "value": "no toxicity"}, {"measurement": "effective therapeutic agent for HCMV", "setting": "HCMV [5]", "value": "not effective therapeutic agents"}, {"measurement": "effective therapeutic agent for HHV6", "setting": "HHV6 [6]", "value": "not effective therapeutic agents"}]}, {"smiles": "Nc1nc(O)c2ncn(COC(CO)CO)c2n1", "note": "[ganciclovir]", "values": [{"measurement": "IC50", "setting": "HCMV [2]", "value": "530 ± 40", "unit": "nM"}]}, {"smiles": "CC(C)[C@H](N)C(=O)OCC(CO)OCn1cnc2c(=O)nc(N)[nH]c21", "note": "(some centres unmarked) [valganciclovir]", "values": [{"measurement": "MIC", "setting": "HCMV [7]", "value": "0.15 to 0.3", "unit": "µg/mL"}, {"measurement": "MIC", "setting": "HHV6 [8]", "value": "0.15 to 0.3", "unit": "µg/mL"}, {"measurement": "EIPS Change", "setting": "[3]; EBV/HCMV subset (38 pts)", "value": "+1.8"}, {"measurement": "EIPS Change", "setting": "[3]; EBV/HHV6 subset (14 pts)", "value": "+2.0"}, {"measurement": "EIPS Change", "setting": "[3]; HCMV single-virus subset (15 pts)", "value": "+1.5"}, {"measurement": "EIPS Change", "setting": "[3]; HCMV/HHV6 subset (7 pts)", "value": "+1.7"}, {"measurement": "EIPS Change", "setting": "[3]; HHV6 single-virus subset (2 pts)", "value": "+2.7"}, {"measurement": "average peak concentrations (Cmax)", "setting": "[9]; after 0.5-1.0 gm doses", "value": 6.1, "unit": "µg/mL"}, {"measurement": "activity versus EBV as compared to HCMV", "setting": "EBV [10]", "value": "one-tenth as active"}, {"measurement": "aminotransferases", "setting": "[4]", "value": "increases in aminotransferases were observed"}, {"measurement": "changes in hemoglobin or platelet levels", "setting": "[4]", "value": "no changes"}, {"measurement": "effective therapeutic agent for HCMV", "setting": "HCMV [5]", "value": "not effective therapeutic agents"}, {"measurement": "clinical outcome", "setting": "HCMV-EBV subset CFS", "value": "returned to health and remain well"}, {"measurement": "side effects", "setting": "HCMV-EBV subset CFS", "value": "No significant side effects"}, {"measurement": "effective therapeutic agent for HHV6", "setting": "HHV6 [6]", "value": "not effective therapeutic agents"}, {"measurement": "effect on human bone marrow progenitor cells and lymphocyte blastogenesis", "setting": "[11]", "value": "inhibitory"}]}, {"smiles": "CC(C)[C@H](N)C(=O)OCCOCn1cnc2c(=O)[nH]c(N)nc21", "note": "[valacyclovir]", "values": [{"measurement": "increase in energy expenditure corresponding to EI change", "setting": "EBV CFS subset; Group 1, after six months", "value": 122, "unit": "kcal/day"}, {"measurement": "increase in mean least square EI Point Score", "setting": "EBV CFS subset; Group 1, after six months, 14.3 mg per kg every 6 hours", "value": "+1.12 units"}, {"measurement": "EI Point Scores", "setting": "EBV CFS subset; [14]", "value": "increased progressively"}, {"measurement": "abnormal cardiac wall motion", "setting": "EBV CFS subset; [14]", "value": "improved"}, {"measurement": "serum antibody titers to EBV VCA IgM", "setting": "EBV CFS subset; [14]", "value": "decreased"}, {"measurement": "sinus tachycardias", "setting": "EBV CFS subset; [14]", "value": "decreased"}, {"measurement": "EIPS Change", "setting": "[3]; [13]", "value": "+2"}, {"measurement": "peak acyclovir levels", "setting": "[9]; [15]", "value": "7.9 to 21", "unit": "µg/mL"}, {"measurement": "time of peak acyclovir levels", "setting": "[9]; [15]", "value": "90 to 120", "unit": "min"}, {"measurement": "minimum inhibitor concentration (MIC)", "setting": "EBV [12]", "value": "1.5 to 3.0", "unit": "µg/mL"}, {"measurement": "toxicity", "setting": "[4]", "value": "no toxicity"}, {"measurement": "effective therapeutic agent for HCMV", "setting": "HCMV [5]", "value": "not an effective therapeutic antiviral agent"}, {"measurement": "clinical outcome", "setting": "HCMV-EBV subset CFS", "value": "returned to health and remain well"}, {"measurement": "side effects", "setting": "HCMV-EBV subset CFS", "value": "No significant side effects"}, {"measurement": "effective therapeutic agent for HHV6", "setting": "HHV6 [6]", "value": "not an effective therapeutic antiviral agent"}]}]}
